Reference: patent US20060094775A1, “Remedy for corneal ulcer” (priority 2003, published 2006)
Entries after “also recorded” stand apart in the source; their conditions may differ.

Key:
[1] = system: rabbit corneal stromal cells; assay: Measurement of collagen degradation activity after three-dimensional collagen gel culture (hydroxyproline per well); type: cell-based; conditions: IL-1β 0.1 ng/ml, 48 hr three-dimensional culture, various concentrations
Protocol: (§1) Rabbit corneal stromal cells were prepared and cultured according to the description of Mishima et al., Invest. Ophthalmol. Vis. Sci. 28, 1521-6 (1987). The rabbits were sacrificed by overdose of sodium pentobarbital. Eyeballs were enucleated, sclera was incised to remove cornea. Stroma was separated from epithelium and endothelium. Corneal stromal cells were detached from stroma by digesting with collagenase (Collagenase from Clostridium histolyticum, Sigma (U.S.A.) #C-0130) (2 mg/ml) at 37° C. for 3-4 hr. The cells were cultured in MEM supplemented with 10% fetal bovine serum (FBS), grown in an incubator (37° C. humidity 100%) in 5% CO2 and then passaged in MEM containing 10% FBS.
Collagen gel was prepared according to the manual of Nitta gelatin. To be specific, the obtained rabbit corneal stromal cells were washed with PBS(−), 0.05% Trypsin (1 ml) was added thereto, and the mixture was left in a CO2 incubator for several min to detach the cells. […] The number of the cells was counted with Burker-Turk hemocytometer (Kayagaki Irika Kogyo). […]
After three-dimensional culture, the medium was collected and non-degraded collagen fibril having a molecular weight exceeding 100 kDa was removed by ultrafiltration. […] The amount of the hydroxyproline in the hydrolysate was measured using an Ehrlich's reagent and a spectrophotometer (Bergman et al., Anal. Chem., 35, 1961-5 (1963)). […]

[2] = system: proMMP-9, MMP-9, proMMP-2 and MMP-2 in rabbit corneal stromal cells; assay: Gelatin zymography of culture medium for MMP-2 and MMP-9 forms after three-dimensional culture; type: cell-based; conditions: for effect on expression of MMPs and proMMPs (gelatin zymography): plasminogen addition, IL-1β 0.1 ng/ml (Example 2, FIG. 9)
Protocol: as §1
Collagen gel was prepared according to the manual of Nitta gelatin. To be specific, the obtained rabbit corneal stromal cells were washed with PBS(−), 0.05% Trypsin (1 ml) was added thereto, and the mixture was left in a CO2 incubator for several min to detach the cells. MEM (5 ml) containing 10% FBS was added to quench the trypsin reaction. The cell suspension was transferred to a 15 ml centrifuge tube, and centrifuged at 1500 rpm for 5 min. The supernatant was removed and the cells were suspended in a constant amount of serum free MEM. The number of the cells was counted with Burker-Turk hemocytometer (Kayagaki Irika Kogyo). The supernatant was removed by centrifugation at 1500 rpm for 5 min. Serum free MEM was added to give a cell suspension (2200000 cells/ml). A. acid-solubilized Type I collagen (3 mg/ml), B. 5-fold concentration of DMEM, C. reconstruction buffer (0.05N NaOH, 0.26 M NaHCO3, 0.2 M HEPES, pH 7.3) and D. a cell suspension (2.2×10^6 cells/ml) were mixed at a ratio of A:B:C:D=7:2:1:1 while cooling on ice. The collagen solution was placed in a 24 well culture plate at 0.5 ml/well, and stood in an incubator at 37° C. 5% CO2 for 0.5-5 hr. Then, 0.5 ml of serum free MEM containing IL-1β (0.1 ng/mL) and various concentrations of triptolide or dexamethasone was overlaid and cultured for 48 hr. […]

[3] = system: proMMPs 1 and 3 in human synovial fluid fibroblast; conditions: cited from earlier work
[4] = system: glycosylated proMMP-1, proMMP-1, MMP-1, proMMP-3 and MMP-3 in rabbit corneal stromal cells; assay: Western blot of culture medium for MMP-1 and MMP-3 forms after three-dimensional culture; type: cell-based; conditions: IL-1β addition
Protocol: as §1
Collagen gel was prepared according to the manual of Nitta gelatin. To be specific, the obtained rabbit corneal stromal cells were washed with PBS(−), 0.05% Trypsin (1 ml) was added thereto, and the mixture was left in a CO2 incubator for several min to detach the cells. MEM (5 ml) containing 10% FBS was added to quench the trypsin reaction. The cell suspension was transferred to a 15 ml centrifuge tube, and centrifuged at 1500 rpm for 5 min. The supernatant was removed and the cells were suspended in a constant amount of serum free MEM. The number of the cells was counted with Burker-Turk hemocytometer (Kayagaki Irika Kogyo). The supernatant was removed by centrifugation at 1500 rpm for 5 min. […]

[5] = system: TIMP-1 production (mRNA) in rabbit corneal stromal cells; assay: RT-PCR of TIMP-1 mRNA after three-dimensional culture; type: cell-based; conditions: IL-1β 0.1 ng/ml; dexamethasone 1 nM, triptolide 3 μM
Protocol: as §1
Collagen gel was prepared according to the manual of Nitta gelatin. […] The number of the cells was counted with Burker-Turk hemocytometer (Kayagaki Irika Kogyo). […]
After three-dimensional culture, collagenase was added to dissolve the collagen gel, and the cells were collected. […] This cDNA, QuantiTect SYBR Green PCR Master Mix solution (QuantiTect-SYBR Green PCR kit, manufactured by Qiagen, Germany), nuclease free water and rabbit TIMP-1 primer (synthesis at Nippon Gene Institute, Han et al., Nagoya J. Med. Sci. 62, 115-126 (1999)) were mixed, and the expression amount of TIMP-1 mRNA was examined using LightCycler (manufactured by Roche Molecular Biochemicals, Germany).

| SMILES | effect on IL-1β induced collagen degradation (amount of degraded collagen as hydroxyproline per well) [1] | effect on expression of MMPs and proMMPs (gelatin zymography) [2] | effect on production of proMMPs 1 and 3 [3] | effect on expression and activation of proMMPs (Western blot) ([4]; 60 mg/ml plasminogen addition) | effect on expression of proMMPs (Western blot) ([4]; plasminogen non-addition) | effect on TIMP-1 production (relative copy number of mRNA) [5] | effect on expression and activation of proMMPs (gelatin zymography) ([2]; 60 mg/ml plasminogen addition, IL-1β addition (Example 1)) |
| --- | --- | --- | --- | --- | --- | --- | --- |
| CC(C)[C@]12O[C@H]1[C@@H]1O[C@@]13[C@@]1(C)CCC4=C(COC4=O)[C@@H]1C[C@@H]1O[C@@]13C2OC(=O)CCC(=O)[O-].[Na+] (stereo partly drawn) [triptolide succinate sodium salt] | suppress IL-1β induced collagen degradation in a concentration dependent manner | suppresses increase of MMP-2 and activation of MMP-9 | – | – | – | – | – |
| CC(C)[C@]12O[C@H]1[C@@H]1O[C@]13[C@]1(O[C@H]1C[C@H]1C4=C(CC[C@@]13C)C(=O)OC4)[C@@H]2O [triptolide] | suppress IL-1β induced collagen degradation in a concentration dependent manner; also recorded: suppresses IL-1β induced collagen degradation in a concentration dependent manner | suppresses increase of proMMP-2 and MMP-2, as well as activation of proMMP-9 | suppresses production of proMMPs 1 and 3 | suppresses increase and activation of glycosylated proMMP-1, proMMP-1 and proMMP-3 | suppresses increase of glycosylated proMMP-1, proMMP-1 and proMMP-3 induced by IL-1β | does not | activation of proMMP-9 |
